Paper PMC7429354, “Potentiating TMEM16A does not stimulate airway mucus secretion or bronchial and pulmonary arterial smooth muscle contraction” (FASEB BioAdvances, 2020)
pEC50: −log10 of the molar value.

Assays:
[1] = molecular target: T1, TMEM16A (Rattus norvegicus, UniProt D4A915); assay: QPatch automated whole-cell patch clamp, recombinant channel (potentiator, maximum […] efficacy); type: cell-based
T1 construct: gene Ano1; full-length (NM_01107564.1), stably expressed in a cell line
T1 sequence (D4A915 1-1105): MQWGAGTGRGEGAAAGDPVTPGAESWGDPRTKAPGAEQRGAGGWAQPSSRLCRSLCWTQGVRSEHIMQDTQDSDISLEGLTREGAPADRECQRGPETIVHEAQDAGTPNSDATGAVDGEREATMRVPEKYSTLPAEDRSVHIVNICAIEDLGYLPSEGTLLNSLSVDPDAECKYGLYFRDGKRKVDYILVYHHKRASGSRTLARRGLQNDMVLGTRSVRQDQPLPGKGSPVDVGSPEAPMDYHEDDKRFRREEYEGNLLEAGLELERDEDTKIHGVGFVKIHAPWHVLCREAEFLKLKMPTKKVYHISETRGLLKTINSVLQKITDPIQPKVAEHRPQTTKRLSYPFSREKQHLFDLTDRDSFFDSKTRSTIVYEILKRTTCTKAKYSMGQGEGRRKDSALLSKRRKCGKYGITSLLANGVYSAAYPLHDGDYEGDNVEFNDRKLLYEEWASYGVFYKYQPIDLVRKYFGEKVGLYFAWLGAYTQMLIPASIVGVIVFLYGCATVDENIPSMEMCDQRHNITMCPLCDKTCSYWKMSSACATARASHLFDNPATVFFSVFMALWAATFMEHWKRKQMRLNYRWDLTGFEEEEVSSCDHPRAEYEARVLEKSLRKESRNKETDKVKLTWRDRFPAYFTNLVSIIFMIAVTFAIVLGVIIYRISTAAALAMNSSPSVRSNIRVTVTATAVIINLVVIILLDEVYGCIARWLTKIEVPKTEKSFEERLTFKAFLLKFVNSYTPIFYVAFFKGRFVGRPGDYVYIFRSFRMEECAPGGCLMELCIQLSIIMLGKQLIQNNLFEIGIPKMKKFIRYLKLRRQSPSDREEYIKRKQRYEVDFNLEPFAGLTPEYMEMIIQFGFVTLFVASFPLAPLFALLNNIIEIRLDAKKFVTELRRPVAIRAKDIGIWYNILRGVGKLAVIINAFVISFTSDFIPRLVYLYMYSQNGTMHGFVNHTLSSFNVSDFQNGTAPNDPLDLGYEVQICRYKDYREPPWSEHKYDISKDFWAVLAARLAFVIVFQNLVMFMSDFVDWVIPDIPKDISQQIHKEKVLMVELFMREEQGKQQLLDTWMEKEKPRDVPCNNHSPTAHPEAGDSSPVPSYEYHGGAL

[2] = molecular target: T2, TMEM16A (Mus musculus, UniProt Q8BHY3); assay: as above; type: cell-based
T2 construct: gene Ano1; full-length (NM_178642.5), stably expressed in CHO cells
T2 sequence (Q8BHY3 1-960): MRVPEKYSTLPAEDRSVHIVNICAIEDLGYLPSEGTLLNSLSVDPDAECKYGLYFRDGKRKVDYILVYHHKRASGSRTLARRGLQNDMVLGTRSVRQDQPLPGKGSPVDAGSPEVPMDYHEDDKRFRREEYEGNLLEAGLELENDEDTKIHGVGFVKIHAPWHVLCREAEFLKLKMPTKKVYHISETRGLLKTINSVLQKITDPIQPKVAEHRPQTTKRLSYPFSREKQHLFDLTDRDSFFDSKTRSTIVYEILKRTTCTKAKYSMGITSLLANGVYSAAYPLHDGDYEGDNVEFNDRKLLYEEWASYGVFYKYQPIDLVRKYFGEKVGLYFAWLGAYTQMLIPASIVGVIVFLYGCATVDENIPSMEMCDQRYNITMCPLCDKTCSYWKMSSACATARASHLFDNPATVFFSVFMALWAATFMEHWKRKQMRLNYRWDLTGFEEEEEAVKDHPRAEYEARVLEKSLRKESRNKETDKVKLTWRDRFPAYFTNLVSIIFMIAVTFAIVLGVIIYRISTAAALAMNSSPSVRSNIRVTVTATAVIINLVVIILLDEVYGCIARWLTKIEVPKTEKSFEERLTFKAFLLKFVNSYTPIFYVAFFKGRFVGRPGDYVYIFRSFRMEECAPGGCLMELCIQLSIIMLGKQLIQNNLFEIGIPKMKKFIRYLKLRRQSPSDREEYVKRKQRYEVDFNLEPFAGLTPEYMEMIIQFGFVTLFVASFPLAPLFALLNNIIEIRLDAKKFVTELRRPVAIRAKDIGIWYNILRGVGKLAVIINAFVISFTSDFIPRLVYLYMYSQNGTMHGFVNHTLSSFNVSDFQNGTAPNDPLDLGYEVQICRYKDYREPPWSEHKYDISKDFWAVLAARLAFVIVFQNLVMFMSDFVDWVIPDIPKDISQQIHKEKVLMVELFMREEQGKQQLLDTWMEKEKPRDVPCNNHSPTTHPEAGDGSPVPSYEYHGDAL

Substance	pEC50 [1]	pEC50 [2]
ETX001	7.06	
ETX004		7.42
